Earlier results, collected in patent US20110053898A1, “TOPICAL COMPOSITION COMPRISING VITAMIN D ANALOGUE AND CORTICOSTEROIDS” (GLENMARK GENERICS LTD, priority 2009, published 2011).

Details: vitamin-D3 derivative versus calcitriol

Structure (SMILES): C=C1/C(=C/C=C2\CCC[C@]3(C)[C@@H]([C@H](C)/C=C/C(O)C4CC4)CC[C@@H]23)C[C@@H](O)C[C@@H]1O (stereo partly shown) [Calcipotriene]
- Power relative to the natural hormone calcitriol: about 1%
